{"source": "patent US12269816B2", "about": "“Benzothiophene compound, preparation method therefor and use thereof” (SICHUAN KELUN-BIOTECH BIOPHARMACEUTICAL CO., LTD., priority 2019, dated 2025)", "key": {"[1]": {"tested_on": "STING and its downstream proteins TBK1 and IRF3 in Raw264.7 cells", "test": "Western blotting of phosphorylation of STING signal pathway proteins in mouse Raw264.7 cells", "type": "cell-based", "settings": "3 hours, protein blotting, FIGS. 6-7, result in words", "description": "(§1) In this experiment, the changes in the phosphorylation levels of STING and its downstream proteins TBK1 (TANK-binding kinase 1) and IRF3 (interferon regulatory factor 3) were detected by protein blotting to evaluate the agonistic effect of the test compounds on the STING signal pathway at the cellular level.\nThe Raw264.7 cells in the logarithmic phase were centrifuged, and resuspended in a cell culture solution to a density of 1.6×10^6 cells/mL. The cell suspension was inoculated into a 6-well cell culture plate (Corning) at 1 mL/well. The compound to be tested was diluted with a cell culture solution to 2× working solution concentration (control compounds 1 and 2: 60 μM; compound 8: 0.6 μM, 6 μM, and 60 μM; compounds 2, 4 and 6: 6 μM, 20 μM, and 60 μM). 1 mL of the diluted solution of the compound was added into a 6-well plate (1 mL of the culture solution containing 2% DMSO was added into the negative control well). The plate was placed in a cell incubator, and incubated for 3 hours. After the incubation, the cells were collected by centrifugation, lysed with 60 μL cell lysis buffer (CST) for 30 minutes, and centrifuged at 12000 rpm for 15 minutes. The supernatant was collected to determine the protein concentration, and then an appropriate amount of 5× protein loading buffer was added. The mixture was heated at 95° C. for 10 minutes to prepare a protein electrophoresis sample. Finally, protein blotting was performed to detect the phosphorylation level of the corresponding protein. The primary antibodies used in the protein blotting were purchased from CST: STING (D2P2F) rabbit mAb, Phospho-STING (Ser365) rabbit mAb, Phospho-IRF3 (Ser396) (D601M) rabbit mAb, IRF3 (D83B9) rabbit mAb, TBK1/NAK (D1B4) rabbit mAb, Phospho-TBK1/NAK (Ser172) (D52C2) XPV rabbit mAb, GAPDH (D16H11) rabbit mAb; and the secondary antibody horseradish peroxidase-conjugated goat anti-rabbit IgG (H+L) was purchased from Zsgb-bio."}, "[2]": {"tested_on": "STING and its downstream proteins TBK1 and IRF3 in THP-1 cells", "test": "Western blotting of phosphorylation of STING signal pathway proteins in human THP-1 cells", "type": "cell-based", "settings": "3 hours, protein blotting, FIGS. 1-5, result in words", "description": "as §1\nThe THP-1 cells in the logarithmic phase were centrifuged, and resuspended in a cell culture solution to a density of […]. The cell suspension was inoculated into a 12-well cell culture plate (Corning) at 0.5 mL/well. The compound to be tested was diluted with a cell culture solution to 2× working solution concentration (control compounds 1 and 2: 60 μM; compounds 1 and 3: 0.6 μM, 6 μM, and 60 μM; compounds 2, 4, 6 and 8: 6 μM, 20 μM, and 60 μM). 0.5 mL of the diluted solution of the compound was added into a 12-well plate (500 μl of the culture solution containing 2% DMSO was added into the negative control well), and the plate was incubated in a cell incubator for 3 hours. After the incubation, the cells were collected by centrifugation, lysed with 60 μL cell lysis buffer (CST) for 30 minutes, and centrifuged at 12,000 rpm for 15 minutes. The supernatant was collected to determine the protein concentration, and then an appropriate amount of 5× protein loading buffer was added. The mixture was heated at 95° C. for 10 minutes to prepare a protein electrophoresis sample. Finally protein blotting was performed to detect the phosphorylation level of the corresponding protein. The primary antibodies used in the protein blotting were purchased from CST: STING (D2P2F) rabbit mAb, Phospho-STING (Ser366) rabbit mAb, Phospho-IRF3 (Ser396) (D601M) rabbit mAb, IRF3 (D83B9) rabbit mAb, TBK1/NAK (D1B4) rabbit mAb, Phospho-TBK1/NAK (Ser172) (D52C2) XP® rabbit mAb, and GAPDH (D16H11) rabbit mAb; and the secondary antibody horseradish peroxidase-conjugated goat anti-rabbit IgG (H+L) was purchased from Zsgb-bio."}, "[3]": {"tested_on": "STING-mediated interferon (IFN) signal reporter gene in THP1-Blue™ ISG cells", "test": "STING-mediated interferon (IFN) signal SEAP reporter gene assay in THP1-Blue ISG cells", "type": "cell-based, human", "settings": "for EC50: Homo sapiens, 16 h incubation, SEAP reporter read at OD620nm; for Emax (OD620nm): highest OD620nm value generated by stimulation of the compound, 16 h; for agonistic effect on the STING-mediated Interferon (IFN) signal pathway: result in words", "description": "In this experiment, the activity of the SEAP (secreted embryonic alkaline phosphatase) reporter gene regulated by the IFN regulatory factor (interferon regulatory factor) was detected in the THP1-Blue™ ISG cells (InvivoGen) to evaluate the agonistic effect of the compounds to be tested on the STING-mediated IFN signal pathway at the cellular level.\nThe THP1-Blue™ ISG cells (InvivoGen) in the logarithmic phase were centrifuged, and resuspended in a cell culture solution to a density of 2×10^6 cells/ml. The cell suspension was inoculated in a 96-well cell culture plate (Corning) at 50 μL/well. The mother liquor of the compound to be tested was gradiently diluted with a cell culture solution to obtain a 2× working concentration diluted solution (control compounds 1 and 2 were diluted at a 3-fold gradient: 200, 66.67, 22.22, 7.41, 2.47, 0.82, 0.27 and 0 μM; compounds 1, 2, 4, 6, 8, and 23 were diluted at a 8-fold gradient: 60, 7.5, 0.94, 0.12, 0.015, 0.0018, 0.00023 and 0 μM; and compounds 3 and 5 were diluted at a 10-fold gradient: 10, 1, 0.1, 0.01, 0.001, 0.0001, 0.00001 and 0 μM). The 2× working concentration diluted solution of the compound was added into a 96-well plate (50 μl of the culture solution containing 2% DMSO was added into the negative control well) at 50 μL/well. The culture plate was then placed in a cell incubator, and incubated for 16 h. After the cell incubation, 10 μL of the cell culture supernatant was transferred to a 96-well plate, and a QUANTI-Blue (InvivoGen) solution was added at 90 μL/well. The cells were incubated at 37° C. for 3 h. The absorbance at 620 nm (OD620nm) was read with a microplate reader.\nIn the table, EC50 refers to the concentration of a compound when ODM620nm value generated by stimulation of the compound reaches half of Emax; and Emax refers to the highest OD620nm value generated by stimulation of the compound."}}, "data": [{"molecule": "COc1cc2sc(C(=O)N(C)CCC(=O)O)cc2cc1OCCCOc1cc2sc(C(=O)CCC(=O)O)cc2cc1OC", "note": "[Compound 4, 4-(6-(3-((2-((2-carboxyethyl)(methyl)carbamoyl)-6-methoxybenzo[b]thiophen-5-yl)oxy)propoxy)-5-methoxybenzo[b]thiophen-2-yl)-4-oxobutanoic acid]", "values": [{"measurement": "agonistic effect on the phosphorylation levels of STING, TBK1 and IRF3", "setting": "[1]", "result": "strong agonistic effects"}, {"measurement": "agonistic effect on the phosphorylation levels of STING, TBK1 and IRF3", "setting": "[2]", "result": "strong agonistic effects"}, {"measurement": "EC50", "setting": "[3]", "result": 35.5, "unit": "nM"}, {"measurement": "Emax (OD620nm)", "setting": "[3]", "result": 1.97, "unit": "OD620nm"}, {"measurement": "agonistic effect on the STING-mediated Interferon (IFN) signal pathway", "setting": "[3]", "result": "strong agonistic effects"}]}, {"molecule": "COc1cc2sc(C(=O)CCC(=O)O)cc2cc1OCCCOc1cc2sc(C(=O)N(C)CCC(=O)O)cc2cc1OC", "note": "[Compound 6, 4-(5-(3-((2-((2-carboxyethyl)(methyl)carbamoyl)-5-methoxybenzo[b]thiophen-6-yl)oxy)propoxy)-6-methoxybenzo[b]thiophen-2-yl)-4-oxobutanoic acid]", "values": [{"measurement": "agonistic effect on the phosphorylation levels of STING, TBK1 and IRF3", "setting": "[1]", "result": "strong agonistic effects"}, {"measurement": "agonistic effect on the phosphorylation levels of STING, TBK1 and IRF3", "setting": "[2]", "result": "strong agonistic effects"}, {"measurement": "EC50", "setting": "[3]", "result": 74.5, "unit": "nM"}, {"measurement": "Emax (OD620nm)", "setting": "[3]", "result": 1.88, "unit": "OD620nm"}, {"measurement": "agonistic effect on the STING-mediated Interferon (IFN) signal pathway", "setting": "[3]", "result": "strong agonistic effects"}]}, {"molecule": "COc1cc2sc(C(=O)CCC(=O)O)cc2cc1OCCCOc1cc2cc(C(=O)N(C)CCC(=O)O)sc2cc1OC", "note": "[Compound 8, 4-(5-(3-((2-((2-carboxyethyl)(methyl)carbamoyl)-6-methoxybenzo[b]thiophen-5-yl)oxy)propoxy)-6-methoxybenzo[b]thiophen-2-yl)-4-oxobutanoic Acid]", "values": [{"measurement": "agonistic effect on the phosphorylation levels of STING, TBK1 and IRF3", "setting": "[1]", "result": "strong agonistic effects"}, {"measurement": "agonistic effect on the phosphorylation levels of STING, TBK1 and IRF3", "setting": "[2]", "result": "strong agonistic effects"}, {"measurement": "EC50", "setting": "[3]", "result": 55.3, "unit": "nM"}, {"measurement": "Emax (OD620nm)", "setting": "[3]", "result": 1.73, "unit": "OD620nm"}, {"measurement": "agonistic effect on the STING-mediated Interferon (IFN) signal pathway", "setting": "[3]", "result": "strong agonistic effects"}]}]}
